Legend:
[1] = test system: steatosis-induced Huh-7 cells; assay: Expression of lipogenesis-related proteins (western blot); assay type: cell-based; settings: Huh7 cells, 250 μM PA; 0.5, 2.5, 10 μM, 24 hours; FIG. 9-A
Experimental: To induce steatosis in Huh-7 cells in each well except for control cells, the Huh-7 cells were treated with PA bound to 2% BSA at a concentration of 250 μM except for the control, and the control cells were pretreated with 2% BSA without FA.
The cells in each well were treated with the compound of Chemical Formula 2 0.5 μM, 2.5 μM, and 10 μM and then cultured for 24 hours. The control cells and PA treated cells were treated with DMSO. All media were aspirated and the cells were gently washed 3 times with cold PBS.
(§1) A cold lysis buffer containing 150 mM sodium chloride (NaCl), 5 mM ethylenediaminetetraacetic acid (EDTA), pH 8.0, […] 4-(2-hydroxyethyl)-1-piperazineethanesulfonic acid (HEPES), 1% nonylphenoxypolyethoxylethanol (NP-40), 2 μg/mL aprotinin, 1 μM pepstatin A, 10 μM leupeptin, 1 mM sodium fluoride (NaF), 0.2 mM sodium orthovanadate ([…]), and 1 μM phenylmethylsulfonyl fluoride (PMSF) was added thereto.
A whole cell lysate was collected and gently pipetted at least 10 times to ensure complete lysis. The sample was incubated on ice for 20 minutes and centrifuged 4° C. at 13,000 rpm, for 20 minutes. […]
(§2) Images were acquired using an ImageQuant LAS 3000 (Fujifilm, Tokyo, Japan). Data were analyzed.

DIAMOND™ mouse model = assay: Insulin resistance test; assay type: in vivo; settings: insulin 0.75 UU/kg intraperitoneally after 6 hours fasting; at 0 and 90 minutes, statistical significance vs control group (VC); FIG. 20
Experimental: The DIAMOND™ mouse model, an animal model prepared using a Western diet and sugar water, was used. The DIAMOND™ mice were induced with WDSW for 14 weeks, and 12 mice were used for the control group and 12 mice for the BW-3290 treatment group, and BW-3290 was orally administered at 16 mg/kg once daily for 8 weeks. An autopsy was performed at week 22, and blood collection and tissue storage were performed for the individuals in each group.
The insulin resistance test was performed one week before autopsy, and the subject was fasted for 6 hours.
Insulin was injected intraperitoneally at a concentration of 0.75 UU/kg, and the blood was collected 15 minutes, 30 minutes, 45 minutes, and 90 minutes after the injection, and the blood glucose levels were measured using the OneTouch Plus Ultra Glucometer and glucose scores were evaluated therefrom.

[2] = test system: Huh7 cells induced with inflammatory response; assay: Protein expression levels in liver cells induced with inflammatory response (western blot); assay type: cell-based; settings: Huh7 cells pretreated with 10 ng/ml IL-1β; 0.5, 2.5, 10 μM, 24 hours; FIG. 11
Experimental: To induce steatosis in Huh-7 cells in each well except for control cells, the Huh-7 cells were pretreated with 10 ng/ml IL-1p for 2 hr except for the control.
The cells in each well were treated with the compound of the present invention, BW-3290, 0.5 μM, 2.5 μM, and 10 μM and then cultured for 24 hours. All media were aspirated and the cells were gently washed 3 times with cold PBS.
as §1
A whole cell lysate was collected and gently pipetted at least 10 times to ensure complete lysis. The sample was incubated on ice for 20 minutes and centrifuged 4° C. at 13,000 rpm, for 20 minutes. The supernatant was collected, 5× sodium dodecyl sulfate (SDS) sample buffer containing 50 mM Tris-CI (pH 6.8), 2% SDS, 0.1% bromopheol blue, and 10% glycerol was added to the sample, and boiled at 95° C. for 5 minutes. […]
as §2

CC(C)C(Nc1ncnc2nc[nH]c12)c1nc2cccc(Cl)c2c(=O)n1-c1ccccc1 (centres unmarked) [BW-3290, 2-(1-((7H-purin-6-yl)amino)-2-methylpropyl)-5-chloro-3-phenylquinazolin-4(3H)-one]
level of FAS protein [1]: decreased in a concentration-dependent manner | level of SREBP1 protein [1]: decreased in a concentration-dependent manner | glucose score (DIAMOND™ mouse model): decreased | protein expression level of p-IKKα [2]: decreased in a concentration-dependent manner | protein expression level of p-NFκ [2]: decreased in a concentration-dependent manner

— US20230097253A1, “NOVEL QUINAZOLINE COMPOUND AS THERAPEUTIC AGENT FOR METABOLIC DISORDERS” (BIOWAY., INC, priority 2020, published 2023)
